Experimental data: patent US7615361B2, “Toxicity screening methods” (Ceetox, Inc., priority 2006, dated 2009)

Columns and labels:
[1] = MemTox membrane leakage (AK / α-GST); assay type: cell-based, rat
How it was run: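 Neonatal rat cardiomyocytes were dosed, and the culture medium was collected at the end of exposure to measure total leaked adenylate kinase (luminescence) and/or α-GST (ELISA, 450/650 nm). Percent dead cells was set against 1 mM digitonin as maximum release, then converted to percent live. Values are means of n=3-7.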

[2] = MemTox membrane leakage (AK / α-GST); assay type: cell-based, rat; settings: rat
How it was run: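 H4IIE rat hepatoma cells were exposed to compound diluted in complete culture medium. Leakage of adenylate kinase (luminescence) and/or α-GST (ELISA, 450/650 nm) was measured in the medium collected at the end of exposure. Percent live cells was computed relative to 1 mM digitonin-treated maximum release, as means of n=3-7.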

Intracellular ATP levels [3] = assay type: cell-based, rat
How it was run: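 Neonatal rat cardiomyocytes exposed to the compound; cellular ATP measured by luciferin/luciferase luminescence after lysis with an ATPase-inhibiting reagent, quantified against an ATP calibration curve in matching matrix (pmol ATP/million cells). Background-corrected luminescence expressed as percent of control; means of n=3-7.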

Intracellular ATP levels [4] = assay type: cell-based, rat; settings: rat
How it was run: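 Rat hepatoma H4IIE cells exposed to compound in complete culture medium, n=3-7 per group. ATP measured by luciferin-luciferase luminescence after lysis with ATPase-inhibiting reagent, quantified against an ATP calibration curve as pmoles ATP/million cells. Results expressed as percent of control from background-corrected luminescence.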

[5] = Intracellular total glutathione (GSH); assay type: cell-based, rat; settings: rat
How it was run: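 Intracellular total glutathione serves as an oxidative-stress marker in neonatal rat cardiomyocytes exposed to compound in vitro. Cells were harvested for biochemical analysis, and values are means of each exposure group (n=3-7).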

[6] = Intracellular total glutathione (GSH); assay type: cell-based, rat; settings: rat; remark: listed apart in the source
How it was run: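 Rat hepatoma H4IIE cells were exposed to compound in dosing solutions made in complete culture medium, then harvested for biochemical measurement of intracellular total glutathione as an oxidative-stress marker. Values are exposure-group means, n=3-7.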

rat cardiomyocytes [7] = test: Membrane lipid peroxidation (8-isoprostane ELISA); assay type: cell-based
How it was run: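 Neonatal rat cardiomyocytes exposed to the test compound, then cells or supernatant harvested for biochemical analysis of oxidative stress. Values are means of each exposure group (n=3-7).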

H4IIE cells [8] = test: Membrane lipid peroxidation (8-isoprostane ELISA); assay type: cell-based, rat
How it was run: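 Rat hepatoma H4IIE cells exposed to test compound prepared in complete culture medium; cells or supernatant harvested for oxidative-stress endpoints. Camptothecin and rotenone served as positive controls; group means from n=3-7.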

rat cardiomyocytes [9] = test: Caspase 3 activity (apoptosis); assay type: cell-based
Procedure: (§1) One test compound (Compound A) was received as dry powder and evaluated for potential cytotoxicity in a battery of in vitro assays. The compound was tested using both rat cardiomyocytes (CM) from rat neonates and a rat hepatoma (H4IIE) cell line. […] The cell supernatant or the cells themselves were harvested for biochemical analysis. General cytotoxicity was evaluated by monitoring membrane integrity, mitochondrial function, cell proliferation, oxidative stress, and apoptosis. In addition, interaction with P-glycoprotein (PgP) on H4IIE cells and solubility of the test compound were also assessed. The means of each exposure group (n=3-7) were calculated for each assay performed.
(§2) Caspase 3 Procedure: Caspase 3 activity was determined using a caspase substrate (DEVD, Asp-Glu-Val-Asp) labeled with a fluorescent molecule, 7-Amino4-methylcoumarin (AMC). Caspase 3 cleaves the tetrapeptide between D and AMC, thus releasing the fluorogenic […] AMC. Following the test article exposure to cells in 96-well plates, medium was aspirated from plates and PBS added to each well. Plates were stored at −80° C. to lyse cells and store samples until further analysis. On the day of analysis, plates were removed from freezer and thawed. Caspase buffer with fluorescent substrate was added to each well and incubated at room temperature for 1 hr. AMC release was measured in a spectrofluorometer at an excitation wavelength of 360 nm and an emission wavelength of 460 nm. Values are expressed as relative fluorescent units (RFU).
(§3) Caspase Activity: After sample plates were completely thawed, the caspase substrate buffer mix was added to each plate. Plates were incubated at room temperature for 1hr, shielded from light. Plates were read using a in a spectrofluorometer at an excitation wavelength of 360 nm and an emission wavelength of 460 nm. Values were expressed as relative fluorescent units (RFU).
(§4) The key to the maximal response data can be found below Table 2.

H4IIE cells [10] = test: Caspase 3 activity (apoptosis); assay type: cell-based, rat
Procedure: as §1
Experimental Protocol: The test compound was provided and stored at 4° C. until needed. Dosing solutions were prepared in complete culture medium. The rat hepatoma (H4IIE) cell line was used as the test system.
as §2, §3, §4

P-glycoprotein (PgP) = P-glycoprotein (PgP) binding: MTT with and without cyclosporin A; assay type: cell-based, rat; settings: H4IIE 24 HR; for % Control (Compound + CSA) / % Control (Compound): MTT, 50 μM; for % Control (Compound + CSA): with cyclosporin A; for % Control (Compound): without CSA; for % Difference: 1-20% low, 20-50% moderate, 50-100% high PgP interaction
Procedure: Several antiviral drugs are substrates for P-glycoprotein transporter (PgP).
P-glycoprotein (PgP) transport proteins are expressed in the bile canalicular membrane of normal liver. However, in neoplastic cells it is not uncommon to have expression of this transporter system in the plasma membrane. […] The existence of these transporters was evaluated with the Calcein-AM assay and with known substrates of PgP.

Compound: CC[C@@]1(O)C(=O)OCc2c1cc1n(c2=O)Cc2cc3ccccc3nc2-1 [CAMPTOTHECIN, Camptothecin]
- CC50 at 24 h ([1]; neonatal rat cardiomyocytes, rat cardiomyocytes (CM), 24 HR exposure, read-out: MemTox TC50): > 300 µM
- CC50 at 24 h ([2]; H4IIE rat hepatoma cells, H4IIE, 24 HR exposure, read-out: MemTox TC50): > 300 µM
- CC50 at 24 h (Intracellular ATP levels [3]; neonatal rat cardiomyocytes, rat cardiomyocytes (CM), 24 HR exposure, read-out: ATP TC50): > 300 µM
- CC50 at 24 h (Intracellular ATP levels [4]; H4IIE rat hepatoma cells, H4IIE, 24 HR exposure, read-out: ATP TC50): 1 µM
- CC50 at 24 h ([5]; neonatal rat cardiomyocytes, CM, 24 HR, read-out: Total GSH TC50): > 300 µM
- CC50 at 24 h ([6]; H4IIE rat hepatoma cells, H4IIE, 24 HR, read-out: Total GSH TC50): 3 µM
- Membrane Lipid Peroxidation (rat cardiomyocytes [7]; CM, 24 HR): 0
- Membrane Lipid Peroxidation (H4IIE cells [8]; H4IIE, 24 HR): 1 (1 = Modest increase with maximum values ≦15 pg/mL)
- Caspase 3 Activity (Index/Dose): Index (rat cardiomyocytes [9]; CM, 24 HR): 6 (1000-1200 = 6)
- Caspase 3 Activity (Index/Dose): Dose (rat cardiomyocytes [9]; CM, 24 HR, exposure concentration that produced the response (μM series)): 300
- Caspase 3 Activity (Index/Dose): Index (H4IIE cells [10]; H4IIE, 24 HR): 5 (800-1000 = 5)
- Caspase 3 Activity (Index/Dose): Dose (H4IIE cells [10]; H4IIE, 24 HR, exposure concentration that produced the response (μM series)): 100
- % Control (Compound + CSA) (P-glycoprotein (PgP)): 26.0%
- % Control (Compound) (P-glycoprotein (PgP)): 23.6%

Compound: COc1cccc2c1C(=O)c1c(O)c3c(c(O)c1C2=O)C[C@@](O)(C(=O)CO)C[C@@H]3O[C@H]1C[C@H](N)[C@@H](O)[C@H](C)O1 [EPIRUBICIN, epirubicin]
- CC50 at 24 h ([1]; rat): 35 µM
- CC50 at 24 h ([2]; MemTox TC50): 37 µM
- CC50 at 24 h (Intracellular ATP levels [3]; rat): 19 µM
- CC50 at 24 h (Intracellular ATP levels [4]; ATP TC50): 32 µM
- CC50 at 24 h [5]: 13 µM
- CC50 at 24 h ([6]; Total GSH TC50): 52 µM
- Membrane Lipid Peroxidation (rat cardiomyocytes [7]; rat, 24 h): 0
- Membrane Lipid Peroxidation (H4IIE cells [8]; rat, 24 h): 0
- Caspase 3 Activity (Index/Dose): Dose (rat cardiomyocytes [9]; rat, 24 h): 20
- Caspase 3 Activity (Index/Dose): Dose (H4IIE cells [10]; rat, 24 h): 50
- % Control (Compound + CSA) (P-glycoprotein (PgP)): 11.8%
- % Control (Compound) (P-glycoprotein (PgP)): 59.7%
- % Difference (P-glycoprotein (PgP)): 80.3%

Compound: Cc1cccc(C)c1OCC(=O)N[C@@H](Cc1ccccc1)[C@@H](O)C[C@H](Cc1ccccc1)NC(=O)[C@H](C(C)C)N1CCCNC1=O [LOPINAVIR, lopinavir]
- CC50 at 24 h ([1]; rat): 76 µM
- CC50 at 24 h ([2]; MemTox TC50): > 300 µM
- CC50 at 24 h (Intracellular ATP levels [3]; rat): 72 µM
- CC50 at 24 h (Intracellular ATP levels [4]; ATP TC50): 195 µM
- CC50 at 24 h [5]: 69 µM
- CC50 at 24 h ([6]; Total GSH TC50): 99 µM
- Membrane Lipid Peroxidation (rat cardiomyocytes [7]; rat, 24 h): 0
- Membrane Lipid Peroxidation (H4IIE cells [8]; rat, 24 h): 0
- Caspase 3 Activity (Index/Dose): Dose (rat cardiomyocytes [9]; rat, 24 h): 100
- Caspase 3 Activity (Index/Dose): Dose (H4IIE cells [10]; rat, 24 h): 300
- % Control (Compound + CSA) (P-glycoprotein (PgP)): 82.1%
- % Control (Compound) (P-glycoprotein (PgP)): 98.0%
- % Difference (P-glycoprotein (PgP)): 16.2%
